This passage reports IC50 results from patent publication US20250059204A1, “FUSED BENZOISOXAZOLYL COMPOUNDS AS KAT6A INHIBITORS” (Aurigene Oncology Limited, priority 2021, published 2025).

Chain of human-KAT6A (MYST domain 507-778 aa) (Q92794 507-778): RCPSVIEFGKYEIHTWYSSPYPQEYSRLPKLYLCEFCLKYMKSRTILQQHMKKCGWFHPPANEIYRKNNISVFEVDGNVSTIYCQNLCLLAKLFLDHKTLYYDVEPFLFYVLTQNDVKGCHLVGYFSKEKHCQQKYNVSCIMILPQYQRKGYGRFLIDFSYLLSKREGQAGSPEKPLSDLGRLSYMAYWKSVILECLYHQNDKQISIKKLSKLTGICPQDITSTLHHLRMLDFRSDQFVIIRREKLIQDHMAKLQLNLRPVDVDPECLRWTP

For this test, the target named is human-KAT6A (MYST domain 507-778 aa) (Homo sapiens (Human), UniProt Q92794). Kind of test: KAT6A biochemical assay (TR-FRET). The conditions noted are these: H4 peptide 200 nM, acetyl-CoA 600 nM. An excerpt:
TR-FRET based method was used for assaying compounds of the present invention for KAT6A enzyme inhibitory activity. TR-FRET is homogeneous proximity assay where Europium-labelled anti-acetyl lysine antibody binds to the acetylated substrate labelled with biotin which in turn binds to streptavidin labelled APC fluorescence acceptor. Europium can transfer energy to APC in the complex and the interaction of two dye-labelled binding partners is detected by the energy transfer between a donor and an acceptor dye, and the subsequent light emission by the acceptor dye. KAT6A transfer an acetyl group from acetyl CoA to lysine amino acids of histones/target proteins. Typically, 5 μL of human-KAT6A (MYST domain 507-778 aa) in assay buffer (100 mM Tris HCl (pH 7.8), 15 mM NaCl, 1 mM EDTA, 0.01% Tween-20, 0.02% BSA, 1 mM DTT) is added to 384-well plate containing 5 μL of selected test compound in final 1% DMSO, serially diluted in 1:3 in an 8-10-point titration. The selected compound of the present invention and enzyme are incubated for 30 min at room temperature. Next, 5 μL of substrate mix containing histone H4 peptide and acetyl-CoA in assay buffer is added to the plate. The final concentrations of H4 peptide and acetyl-CoA are 200 nM and 600 nM respectively. Following 30 min reaction at room temperature, 5 μL of detection mix containing Europium labelled anti-acetyl antibody and streptavidin-APC is added to the reaction wells. The plate is further incubated for 45 min at room temperature and is read in TR-FRET mode (Ex:340 nm; Em: 615 nm and 665 nm) on a plate reader. The percent inhibition was calculated from the ratio of the fluorescence (FL) intensities [(F665/F615)×10,000) using the formula […]. IC50 values of the compounds were determined by fitting the dose-response data to sigmoidal curve fitting equation using Graph pad prism software V8.
`COc1cccc(OC)c1S(=O)(=O)Nc1noc2cc(Cn3cccn3)c3c(c12)OC(C)C3` (single isomer, unassigned) [Compound 22, N-(4-((1H-pyrazol-1-yl)methyl)-2-methyl-2,3-dihydrobenzofuro[7,6-d]isoxazol-8-yl)-2,6-dimethoxybenzenesulfonamide] yielded a half-inhibitory concentration (IC50) of 21 nM. `COc1cccc(OC)c1S(=O)(=O)Nc1noc2cc(Cn3cccn3)c3c(c12)OC(C)C3` (single isomer, unassigned) [Compound 23, N-(4-((1H-pyrazol-1-yl)methyl)-2-methyl-2,3-dihydrobenzofuro[7,6-d]isoxazol-8-yl)-2,6-dimethoxybenzenesulfonamide] displayed an IC50 of 23 nM.

The molecule `COCC1Cc2c(Cn3cccn3)cc3onc(NS(=O)(=O)c4c(OC)cccc4OC)c3c2O1` (single isomer, unassigned) [Compound 61, N-(4-((1H-pyrazol-1-yl)methyl)-2-(methoxymethyl)-2,3-dihydrobenzofuro[7,6-d]isoxazol-8-yl)-2,6-dimethoxybenzenesulfonamide] registered a concentration for half-maximal inhibition (IC50) of 280 nM.

`COCC1Cc2c(Cn3cccn3)cc3onc(NS(=O)(=O)c4c(OC)cccc4OC)c3c2O1` (single isomer, unassigned) [Compound 62, N-(4-((1H-pyrazol-1-yl)methyl)-2-(methoxymethyl)-2,3-dihydrobenzofuro[7,6-d]isoxazol-8-yl)-2,6-dimethoxybenzenesulfonamide] came in with a 50% inhibitory concentration (IC50) of 164 nM.

For `COc1cccc(OC)c1S(=O)(=O)Nc1noc2cc(-c3ccccc3)c3c(c12)OCC3` [Compound 1, 2,6-dimethoxy-N-(4-phenyl-2,3-dihydrobenzofuro[7,6-d]isoxazol-8-yl)benzenesulfonamide], it took 57 nM to reach half-maximal inhibition (IC50). Then `COc1cccc(OC)c1S(=O)(=O)Nc1noc2cc(Cn3cccn3)c3c(c12)OCC3` [Compound 2, N-(4-((1H-pyrazol-1-yl)methyl)-2,3-dihydrobenzofuro[7,6-d]isoxazol-8-yl)-2,6-dimethoxybenzenesulfonamide], with 20 nM; and `COc1cccc(OC)c1S(=O)(=O)Nc1noc2cc(-c3ccsc3)c3c(c12)OCC3` [Compound 3], with 43 nM; and `COc1cccc(OC)c1S(=O)(=O)Nc1noc2cc(-c3ccoc3)c3c(c12)OCC3` [Compound 4], with 29 nM. Next, `COc1cccc(OC)c1S(=O)(=O)Nc1noc2cc(-c3cccs3)c3c(c12)OCC3` [Compound 6]: 46 nM; `COc1csc(-c2cc3onc(NS(=O)(=O)c4c(OC)cccc4OC)c3c3c2CCO3)c1` [Compound 7]: 150 nM. Next, `COc1cccc(OC)c1S(=O)(=O)Nc1noc2cc(-c3ccco3)c3c(c12)OCC3` [Compound 8]: 43 nM. As to `COc1cccc(OC)c1S(=O)(=O)Nc1noc2cc(-c3ccc(C)o3)c3c(c12)OCC3` [Compound 9], the half-inhibitory concentration (IC50) came to 36 nM.

`COc1cccc(OC)c1S(=O)(=O)Nc1noc2cc(-c3scnc3C)c3c(c12)OCC3` [Compound 11] showed a 50% inhibitory concentration (IC50) of 88 nM. Then `COc1cccc(OC)c1S(=O)(=O)Nc1noc2cc(-c3ccc(C)s3)c3c(c12)OCC3` [Compound 12], with 291 nM; and `COc1cccc(OC)c1S(=O)(=O)Nc1noc2cc(-c3cc(C)cs3)c3c(c12)OCC3` [Compound 13], with 71 nM; and `COc1cccc(OC)c1S(=O)(=O)Nc1noc2cc(-c3ccccc3)c3c(c12)OCCC3` [Compound 15], with 45 nM. Next, `COc1cccc(OC)c1S(=O)(=O)Nc1noc2cc(-c3ccccc3)c3c(c12)OCCC3C` (stereo not drawn) [Compound 17]: 74 nM; `COc1cccc(OC)c1S(=O)(=O)Nc1noc2cc(-c3ccccc3)c3c(c12)OC(C)C3` (stereo not drawn) [Compound 18]: 37 nM.

Molecule `COCc1cc2onc(NS(=O)(=O)c3c(OC)cccc3OC)c2c2c1CCO2` [Compound 19] displayed an IC50 of 31 nM. As for `COc1cccc(OC)c1S(=O)(=O)Nc1noc2cc(C(C)n3cccn3)c3c(c12)OCC3` (stereo not drawn) [Compound 20], the half-inhibitory concentration (IC50) came out at 51 nM. Then `COc1cccc(OC)c1S(=O)(=O)Nc1noc2cc(Cn3cccn3)c3c(c12)OC(C)C3` (stereo not drawn) [Compound 21, N-(4-((1H-pyrazol-1-yl)methyl)-2-methyl-2,3-dihydrobenzofuro[7,6-d]isoxazol-8-yl)-2,6-dimethoxybenzenesulfonamide], with 19 nM; and `COc1cc(C(F)(F)F)ccc1S(=O)(=O)Nc1noc2cc(Cn3cccn3)c3c(c12)OCC3` [Compound 31], with 18 nM; and `COc1cccc(OC)c1S(=O)(=O)Nc1noc2cc(Cn3cc(C#N)cn3)c3c(c12)OCC3` [Compound 33], with 127 nM. Then `COc1cccc(OC)c1S(=O)(=O)Nc1noc2cc(Cn3cc(F)cn3)c3c(c12)OCC3` [Compound 34], with 26 nM; and `COc1cccc(OC)c1S(=O)(=O)Nc1noc2cc(Cn3cc(Cl)cn3)c3c(c12)OCC3` [Compound 35], with 27 nM.

`COc1cccc(OC)c1S(=O)(=O)Nc1noc2cc(Cn3cc(C(F)(F)F)cn3)c3c(c12)OCC3` [Compound 36] yielded an IC50 of 219 nM. Next, `COc1cccc(OC)c1S(=O)(=O)Nc1noc2cc(Cn3ccc(C(F)(F)F)n3)c3c(c12)OCC3` [Compound 37]: 494 nM. Then `O=S(=O)(Nc1noc2cc(Cn3cccn3)c3c(c12)OCC3)c1ccccc1OCc1ccccn1` [Compound 38], with 32 nM.

The molecule `COc1cc(-n2cccn2)ccc1S(=O)(=O)Nc1noc2cc(Cn3cccn3)c3c(c12)OCC3` [Compound 39] displayed an IC50 of 22 nM. Next, `COc1ccc(-n2cccn2)cc1S(=O)(=O)Nc1noc2cc(Cn3cccn3)c3c(c12)OCC3` [Compound 40]: 27 nM; `COc1cccc(OC)c1S(=O)(=O)Nc1noc2cc(Cn3ccnn3)c3c(c12)OCC3` [Compound 41]: 25 nM. Then `COC(=O)c1ccc(OC)c(S(=O)(=O)Nc2noc3cc(Cn4cccn4)c4c(c23)OCC4)c1` [Compound 42], with 26.6 nM. Next, `COc1cc2c(cc1S(=O)(=O)Nc1noc3cc(Cn4cccn4)c4c(c13)OCC4)CCCC2` [Compound 43]: 12 nM. As for `COc1cc2c(cc1S(=O)(=O)Nc1noc3cc(Cn4cccn4)c4c(c13)OCC4)CCC2` [Compound 44], 32.7 nM corresponded to half-maximal inhibition (IC50). In turn, `O=S(=O)(Nc1noc2cc(Cn3cccn3)c3c(c12)OCC3)c1c(Cl)cccc1Cl` [Compound 45] registered an IC50 of 40 nM.

Molecule `CCc1ccc(OC)c(S(=O)(=O)Nc2noc3cc(Cn4cccn4)c4c(c23)OCC4)c1` [Compound 46] had an IC50 of 20 nM. Next, `COc1cc(C(C)(C)C)ccc1S(=O)(=O)Nc1noc2cc(Cn3cccn3)c3c(c12)OCC3` [Compound 47]: 26 nM. Next, `O=S(=O)(Nc1noc2cc(Cn3cccn3)c3c(c12)OCC3)c1c(F)cccc1F` [Compound 48]: 30 nM. Then `COc1ccc(C(C)(C)C)cc1S(=O)(=O)Nc1noc2cc(Cn3cccn3)c3c(c12)OCC3` [Compound 49], with 76 nM; and `O=S(=O)(Nc1noc2cc(Cn3cccn3)c3c(c12)OCC3)c1ccccc1OC(F)(F)F` [Compound 50], with 70 nM. Regarding `O=S(=O)(Nc1noc2cc(Cn3cccn3)c3c(c12)OCC3)c1ccccc1F` [Compound 51], the IC50 amounted to 35 nM.

With `CCOc1ccccc1S(=O)(=O)Nc1noc2cc(Cn3cccn3)c3c(c12)OCC3` [Compound 52], 32 nM corresponded to half-maximal inhibition (IC50).
